Article PMC10597491 (PLOS ONE, 2023)
Bridge positions count the residues as written; N and C are the ends. Ends that are not written are not given here.

Key:
cynomolgus IL-7Rα = molecular target: T1, cynomolgus IL-7Rα (Macaca fascicularis, UniProt Q38IC7); experiment: Competition binding ELISA, cynomolgus IL-7Rα ECD; details: immobilized cynomolgus IL-7Rα-His6 ECD; biotinylated peptide/NA-HRP tracer; read-out: Competition ELISA IC50, IL-7Rα Cyno
T1 construct: cynomolgus IL-7Rα(aa 21–235)-His6, Sino Biological Cat# 90332-C08H; His6 (C); purchased Sino Biological 90332-C08H
T1 sequence (Q38IC7 21-235): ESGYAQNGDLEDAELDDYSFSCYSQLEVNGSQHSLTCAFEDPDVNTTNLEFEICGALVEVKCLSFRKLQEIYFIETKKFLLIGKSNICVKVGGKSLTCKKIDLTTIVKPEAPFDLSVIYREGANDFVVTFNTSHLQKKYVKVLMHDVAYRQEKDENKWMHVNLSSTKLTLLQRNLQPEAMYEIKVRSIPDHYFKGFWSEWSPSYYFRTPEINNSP
Description: (A, B) Determination of IC50 values in a competition ELISA for compound binding to human and cyno IL-7Rα and γc. The assay format is IL-7Rα-(His)6-tagged ECD or Fc-γc ECD immobilized on 96-well plates. Tracers are C-terminal biotinylated forms of the reference IL-7Rα and γc peptide ligands, each pre-complexed with Neutravidin-HRP (NA-HRP). (C, D) Label-free measurement of the equilibrium dissociation constant (KD) for peptide binding to IL-7Rα and γc extracellular domains with peptides was performed by biolayer interferometry as detailed in methods. Red lines depict 1:1 binding fit from Gator™ software. Blue lines represent individual BLI sensogram data taken every 0.1 seconds.
Binding was determined using a competition binding ELISA. Microtiter plates (Immulon 4HBX flat bottom 96-well) were coated with 50 μL of […] human ECDs: IL-7Rα(aa 21–236)-His6, Sino Biological Cat# 10975-H08H; cynomolgus IL-7Rα(aa 21–235)-His6, Sino Biological Cat# 90332-C08H; human IL-2Rα(aa 23–254)-Fc, Acro Cat# ILG-H5256; cynomolgus IL-2Rα(aa 23–254)-Fc, made in-house, in PBS overnight at 4°C. […] Plates were washed with cold wash buffer, and bound tracer was detected using TMB One Component HRP substrate and Stop Solution (Surmodics Cat# TMBW-1000-01 and LSTP-0100-01). Absorbance at 450 nm was read using Agilent BioTek Synergy HTX Multimode Reader.

IL-2/15Rβγc receptor = molecular target: T2, IL-2/15Rβγc receptor (Homo sapiens, UniProt P31785); experiment: IL-15-induced STAT activation in TF-1 cells expressing IL-2/15Rβ; format: cell-based; details: IL-15 at ~EC75; up to 10 μM MDK1472 or 5 μM MDK-703
T2 construct: pcDNA3.1 expression vector encoding full-length IL-2Rβ, IL-7Rα, IL-9Rα, or IL-21Rα; TF-1 cells naturally express γc and IL-4Rα; expressed in transfected cells
T2 sequence (P31785 23-369): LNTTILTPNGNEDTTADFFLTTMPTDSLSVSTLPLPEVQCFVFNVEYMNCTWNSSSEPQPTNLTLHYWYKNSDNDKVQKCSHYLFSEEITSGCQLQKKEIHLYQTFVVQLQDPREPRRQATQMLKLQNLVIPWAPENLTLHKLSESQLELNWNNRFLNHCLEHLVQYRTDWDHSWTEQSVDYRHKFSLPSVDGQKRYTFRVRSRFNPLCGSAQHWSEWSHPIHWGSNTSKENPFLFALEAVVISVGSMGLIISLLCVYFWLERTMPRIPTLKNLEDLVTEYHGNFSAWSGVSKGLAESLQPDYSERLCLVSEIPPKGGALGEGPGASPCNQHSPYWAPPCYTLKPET
Procedure: There is no detectable effect of the novel agonists on the activation of any of the other receptors of the γc family.
Cells were deprived of growth factors by overnight incubation at 5×10^5 cells/mL in starvation medium (RPMI 1640 + 4.5 g/L glucose + 0.2% FBS + 2 mM L-glutamine + 1 mM NaPyr + 10 mM HEPES + 0.5x penicillin-streptomycin with no cytokine supplement) in T75 flasks. For assays, cells were plated in 96-well V-bottom plates at 2×10^5 cells/well. Three-fold serial dilutions in starvation medium of the test compounds or cytokine were added to the cells and incubated for 30 min at 37°C. Following incubation, cell extracts were prepared by adding a mixture of 10x Cell Lysis Buffer (Cell Signaling Technology Cat# 9803) and 100x HALT Phosphatase and Protease Inhibitor Cocktail (Thermo Fisher Cat# 78442) directly to the wells. The plates were agitated at 25°C for 5 min to prepare cell extracts for immediate use or to be stored at -80°C until assay. […]
TF-1-derived lines separately expressing each gamma common family private receptor were starved overnight at 5x10^5 cells/mL. The following day, the cells were counted and plated at 2x10^6 cells/well in 96-well plates. […] Cell extracts were prepared and analyzed for pSTAT3, pSTAT5, or pSTAT6 accumulation with Pathscan pSTAT ELISA kits as described above.

IC50 (cynomolgus IL-7Rα): 190 nM
Substance: Ac-GWGIPWCTLDPGSLQCAWLGKHGGGGSGGVVCQDWEGVELCWQGG (disulfide 7-16, 32-41) [MDK1472]
inhibition of IL-15 activation (IL-2/15Rβγc receptor): neither MDK1472 nor MDK-703 exhibit inhibition
